This passage reports IC50 results from patent publication US20260146035A1, “FUSED BICYCLIC COMPOUNDS AND THEIR USE AS MER AND AXL INHIBITORS” (DONG-A ST CO., LTD., priority 2022, published 2026).

Experiment [1] has as its target T1, human TYRO3 (455-end) (Homo sapiens, UniProt Q06418).
T1 construct: TYRO3 (455-end); purchased SignalChem, Canada
T1 sequence (Q06418 455-890 limits assumed): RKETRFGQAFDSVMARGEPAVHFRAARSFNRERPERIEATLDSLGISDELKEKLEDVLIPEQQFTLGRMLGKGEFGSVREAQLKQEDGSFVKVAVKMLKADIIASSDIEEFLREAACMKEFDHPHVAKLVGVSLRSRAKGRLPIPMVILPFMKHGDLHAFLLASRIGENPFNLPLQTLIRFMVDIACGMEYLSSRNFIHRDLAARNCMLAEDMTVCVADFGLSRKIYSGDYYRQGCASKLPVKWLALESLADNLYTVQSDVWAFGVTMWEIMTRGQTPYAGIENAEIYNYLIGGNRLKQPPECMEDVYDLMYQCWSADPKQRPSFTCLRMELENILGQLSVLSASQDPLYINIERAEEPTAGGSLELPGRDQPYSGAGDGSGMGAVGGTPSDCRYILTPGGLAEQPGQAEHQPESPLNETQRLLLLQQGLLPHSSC
The experiment can be described thus: HTRF kinase activity biochemical assay, TYRO3. To be noted: 10 μM ATP, 30 minutes pre-incubation; read-out: HTRF TYRO IC50. (In general: TR-FRET usually uses a lanthanide donor and a delayed reading to cut background.)

The target of experiment [2] is T2, human MER (528-end) (Homo sapiens, UniProt Q12866).
T2 construct: human MER (528-end); purchased Camnabio, Japan
T2 sequence (Q12866 528-999 limits assumed): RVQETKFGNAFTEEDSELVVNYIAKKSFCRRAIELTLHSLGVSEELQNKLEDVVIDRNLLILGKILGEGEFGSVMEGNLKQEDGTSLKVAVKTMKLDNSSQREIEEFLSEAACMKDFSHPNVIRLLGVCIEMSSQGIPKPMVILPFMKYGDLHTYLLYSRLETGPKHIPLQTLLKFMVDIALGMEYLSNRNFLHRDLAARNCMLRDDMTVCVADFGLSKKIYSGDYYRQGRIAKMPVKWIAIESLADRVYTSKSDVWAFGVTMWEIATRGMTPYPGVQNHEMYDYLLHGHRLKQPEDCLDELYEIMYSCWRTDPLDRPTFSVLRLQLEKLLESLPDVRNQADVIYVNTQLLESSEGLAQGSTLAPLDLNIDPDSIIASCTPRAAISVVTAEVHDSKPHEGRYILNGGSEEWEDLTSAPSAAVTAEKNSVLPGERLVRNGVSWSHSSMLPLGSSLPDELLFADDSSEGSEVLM
The experiment is described as follows: HTRF kinase activity biochemical assay, MER. Particulars: 10 μM ATP, 30 minutes pre-incubation; read-out: HTRF MERTK IC50.

For experiment [3], the target named is T3, human AXL (473-end) (Homo sapiens, UniProt P30530).
T3 construct: human AXL (473-end); purchased SignalChem, Canada
T3 sequence (P30530 473-894 limits assumed): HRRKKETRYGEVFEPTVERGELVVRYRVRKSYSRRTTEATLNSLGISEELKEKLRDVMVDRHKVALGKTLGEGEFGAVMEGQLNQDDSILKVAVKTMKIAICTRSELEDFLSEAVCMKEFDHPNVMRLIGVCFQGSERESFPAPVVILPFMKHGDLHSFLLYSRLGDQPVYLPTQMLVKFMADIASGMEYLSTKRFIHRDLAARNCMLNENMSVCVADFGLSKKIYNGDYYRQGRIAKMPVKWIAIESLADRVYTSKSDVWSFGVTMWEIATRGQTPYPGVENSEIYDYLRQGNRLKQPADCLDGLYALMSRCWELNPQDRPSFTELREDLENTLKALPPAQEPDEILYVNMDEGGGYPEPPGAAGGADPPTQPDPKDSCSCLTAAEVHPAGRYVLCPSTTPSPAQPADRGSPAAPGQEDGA
The experiment is described as follows: HTRF kinase activity biochemical assay, AXL. Particulars: 10 μM ATP, 30 minutes pre-incubation.

Where only a bound is given, the exact number is not on record here.

One may read the IC50 as the point on the concentration scale where inhibition reaches its midpoint. As for `Cn1cc(-c2cnc(N)c(C(=O)N[C@H]3CCC[C@@H]3OCc3ccc(-c4ccc5c(c4)CC(F)(F)[C@@H]5N4CCN(CCO)CC4)cc3)c2)cn1` [Example 65, 2-amino-N-{(1S,2S)-2-[(4-{(1R)-2,2-difluoro-1-[4-(2-hydroxyethyl)piperazin-1-yl]-2,3-dihydro-1H-inden-5-yl}phenyl)methoxy]cyclopentyl}-5-(1-methyl-1H-pyrazol-4-yl)pyridine-3-carboxamide], the IC50 in experiment [1] was 100 to 1000 nM; in experiment [2], below 10 nM; in experiment [3], below 10 nM.
Take `Cn1cc(-c2cnc(N)c(C(=O)N[C@H]3CCC[C@@H]3OCc3ccc(-c4ccc5c(c4)CC(F)(F)[C@H]5N4CCN(CCO)CC4)cc3)c2)cn1` [Example 66, 2-amino-N-{(1S,2S)-2-[(4-{(1S)-2,2-difluoro-1-[4-(2-hydroxyethyl)piperazin-1-yl]-2,3-dihydro-1H-inden-5-yl}phenyl)methoxy]cyclopentyl}-5-(1-methyl-1H-pyrazol-4-yl)pyridine-3-carboxamide]: the values for the IC50 in experiment [1], in experiment [2] and in experiment [3] were above 1000 nM, 10 to 100 nM and 10 to 100 nM, respectively.
For `Cn1cc(-c2cnc(N)c(C(=O)N[C@H]3CCC[C@@H]3OCc3ccc(-c4ccc5c(ccn5CCN)c4)cc3)c2)cn1` [Example 67, 2-amino-N-[(1S,2S)-2-({4-[1-(2-aminoethyl)-1H-indol-5-yl]phenyl}methoxy)cyclopentyl]-5-(1-methyl-1H-pyrazol-4-yl)pyridine-3-carboxamide], the results for the IC50 in experiment [1], in experiment [2] and in experiment [3] were 100 to 1000 nM, below 10 nM and below 10 nM, respectively.
As for `Cn1cc(-c2cnc(N)c(C(=O)N[C@H]3CCC[C@@H]3OCc3ccc(-c4ccc5[nH]ccc5c4)cc3)c2)cn1` [Example 68, 2-amino-N-[(1S,2S)-2-{[4-(1H-indol-5-yl)phenyl]methoxy}cyclopentyl]-5-(1-methyl-1H-pyrazol-4-yl)pyridine-3-carboxamide], the results for the IC50 in experiment [1], in experiment [2] and in experiment [3] were 100 to 1000 nM, below 10 nM and below 10 nM, respectively.
For the molecule `Cn1cc(-c2cnc(N)c(C(=O)N[C@H]3CCC[C@@H]3OCc3ccc(-c4ccc5c(c4)NC(=O)C5N4CCN(CCO)CC4)cc3)c2)cn1` (stereo partly drawn) [Example 69, 2-amino-N-{(1S,2S)-2-[(4-{3-[4-(2-hydroxyethyl)piperazin-1-yl]-2-oxo-2,3-dihydro-1H-indol-6-yl}phenyl)methoxy]cyclopentyl}-5-(1-methyl-1H-pyrazol-4-yl)pyridine-3-carboxamide], the IC50 is above 1000 nM in experiment [1], 100 to 1000 nM in experiment [2] and 100 to 1000 nM in experiment [3].
Turning to `CN(C)CCn1ccc2cc(-c3ccc(CO[C@H]4CCC[C@@H]4NC(=O)c4cc(-c5cnn(C)c5)cnc4N)cc3)ccc21` [Example 70, 2-amino-N-{(1S,2S)-2-[(4-{1-[2-(dimethylamino)ethyl]-1H-indol-5-yl}phenyl)methoxy]cyclopentyl}-5-(1-methyl-1H-pyrazol-4-yl)pyridine-3-carboxamide], the figures for the IC50 in experiment [1], in experiment [2] and in experiment [3] were 100 to 1000 nM, below 10 nM and below 10 nM, respectively.
Regarding `Cn1cc(-c2cnc(N)c(C(=O)N[C@H]3COC[C@@H]3OCc3ccc(-c4ccc5c(c4)C(C)(C)CN5C4CCN(CCO)CC4)cc3)n2)cn1` [Example 71, 3-amino-N-{(3S,4R)-4-[(4-{1-[1-(2-hydroxyethyl)piperidin-4-yl]-3,3-dimethyl-2,3-dihydro-1H-indol-5-yl}phenyl)methoxy]oxolan-3-yl}-6-(1-methyl-1H-pyrazol-4-yl)pyrazine-2-carboxamide], the results for the IC50 in experiment [1], in experiment [2] and in experiment [3] were 100 to 1000 nM, below 10 nM and 10 to 100 nM, respectively.
